# Data: ChEMBL document CHEMBL1135099, “Synthesis and antinephritic activities of quinoline-3-carboxamides and related compounds” (2002)
# Activity calls are given as the source filed them. No cut-off for these calls is given here.
# Assays:
# Mus musculus [1] = assay: Percent inhibition of proteinuria in mice, perorally dose of 32 mg/kg; assay type: functional; details: route oral
# Mus musculus [2] = assay: Percent inhibition of proteinuria by compound dose of 100 mg/kg given perorally to murine in chronic graft-versus-host-disease test; assay type: functional; details: route oral
# Mus musculus [3] = assay: Percent inhibition of anti-DNA antibody was evaluated by ELISA technique as a measure of auto-immune disease after injection of compound dose of 0.1 mg/kg in murine; assay type: functional
# Mus musculus [4] = assay: Percent inhibition of anti-DNA antibody was evaluated by ELISA technique as a measure of auto-immune disease after injection of compound dose of 1 mg/kg in murine; assay type: functional
# Mus musculus [5] = assay: Percent inhibition of anti-DNA antibody was evaluated by ELISA technique as a measure of auto-immune disease after injection of compound dose of 10 mg/kg in murine; assay type: functional
# Mus musculus [6] = assay: Percent inhibition of proteinuria by compound dose of 1 mg/kg given perorally to murine in chronic graft-versus-host-disease test; assay type: functional; details: route oral
# Mus musculus [7] = assay: Percent inhibition of proteinuria by compound dose of 10 mg/kg given perorally to murine in chronic graft-versus-host-disease test; assay type: functional; details: route oral
# Mus musculus [8] = assay: Percent inhibition of proteinuria by compound dose of 0.1 mg/kg given perorally to murine in chronic graft-versus-host-disease test; assay type: functional; details: route oral
# Mus musculus [9] = assay: Percent inhibition of anti-DNA antibody was evaluated by ELISA technique as a measure of auto-immune disease after injection of compound dose of 0.1 mg/kg in MRL/1 mice; assay type: functional
# Mus musculus [10] = assay: Percent inhibition of anti-DNA antibody was evaluated by ELISA technique as a measure of auto-immune disease after injection of compound dose of 0.32 mg/kg in MRL/1 mice; assay type: functional
# Mus musculus [11] = assay: Percent inhibition of anti-DNA antibody was evaluated by ELISA technique as a measure of auto-immune disease after injection of compound dose of 1 mg/kg in MRL/1 mice; assay type: functional
# Mus musculus [12] = assay: Percent inhibition of anti-DNA antibody was evaluated by ELISA technique as a measure of auto-immune disease after injection of compound dose of 10 mg/kg in MRL/1 mice; assay type: functional
# Mus musculus [13] = assay: Percent inhibition of anti-DNA antibody was evaluated by ELISA technique as a measure of auto-immune disease after injection of compound dose of 100 mg/kg in murine; assay type: functional
# Mus musculus [14] = assay: Percent inhibition of anti-DNA antibody was evaluated by ELISA technique as a measure of auto-immune disease after injection of compound dose of 3.2 mg/kg in MRL/1 mice; assay type: functional
# Mus musculus [15] = assay: Percent inhibition of proteinuria by compound dose of 0.32 mg/kg given perorally to MRL/1 mice; assay type: functional; details: route oral
# Mus musculus [16] = assay: Percent inhibition of proteinuria by compound dose of 1 mg/kg given perorally to MRL/1 mice; assay type: functional; details: route oral
# Mus musculus [17] = assay: Percent inhibition of proteinuria by compound dose of 10 mg/kg given perorally to MRL/1 mice; assay type: functional; details: route oral
# Mus musculus [18] = assay: Percent inhibition of proteinuria by compound dose of 3.2 mg/kg given perorally to MRL/1 mice; assay type: functional; details: route oral
# Mus musculus [19] = assay: Percent inhibition of proteinuria by compound dose of 0.1 mg/kg given perorally to MRL/1 mice; assay type: functional; details: route oral
# Mus musculus [20] = assay: Percent inhibition of anti-DNA antibody was evaluated by ELISA technique as a measure of auto-immune disease after injection of compound dose of 100 mg/kg in MRL/1 mice; assay type: functional
# Mus musculus [21] = assay: Percent inhibition of anti-DNA antibody was evaluated by ELISA technique as a measure of auto-immune disease after injection of compound dose of 32 mg/kg in murine; assay type: functional
# Mus musculus [22] = assay: Percent inhibition of proteinuria by compound dose of 1 mg/kg given perorally to MRL/1 mice; Inactive; assay type: functional, organism-based; set-up: dose 1 mg/kg
# Mus musculus [23] = assay: Percent inhibition of proteinuria by compound dose of 100 mg/kg given perorally to MRL/1 mice; assay type: functional; details: route oral
# Mus musculus [24] = assay: Percent inhibition of proteinuria by compound dose of 3.2 mg/kg given perorally to MRL/1 mice; Inactive; assay type: functional, organism-based; set-up: dose 3.2 mg/kg
# Mus musculus [25] = assay: Percent inhibition of proteinuria by compound dose of 32 mg/kg given perorally to MRL/1 mice; assay type: functional; details: route oral
# Mus musculus [26] = assay: Percent inhibition of anti-DNA antibody was evaluated by ELISA technique as a measure of auto-immune disease after injection of compound dose of 32 mg/kg in MRL/1 mice; assay type: functional
compound,measurement,setting,value
CSc1ccc2c(c1)c(O)c(C(=O)Nc1ccccc1)c(=O)n2C,inhibition in vivo at 32 mg/kg,Mus musculus [1],24%
CSc1ccc2c(c1)c(O)c(C(=O)N(C)c1ccccc1)c(=O)n2Cc1ccccc1,inhibition in vivo at 32 mg/kg,Mus musculus [1],-66%
CSc1ccc2c(c1)c(O)c(C(=O)N(C)c1cccc(C(F)(F)F)c1)c(=O)n2C,inhibition in vivo at 32 mg/kg,Mus musculus [1],99%
CSc1ccc2c(c1)c(O)c(C(=O)N(C)C1CCCCC1)c(=O)n2C,inhibition in vivo at 32 mg/kg,Mus musculus [1],43%
CSc1ccc2c(c1)c(O)c(C(=O)n1ccc3ccccc31)c(=O)n2C,inhibition in vivo at 100 mg/kg,Mus musculus [2],48%
CN(C(=O)c1c(O)c2cc([S+](C)[O-])ccc2n(C)c1=O)c1ccccc1 (stereo not drawn),inhibition in vivo at 32 mg/kg,Mus musculus [1],100%
"C[C@]12C=CC(=O)C=C1CCC1[C@@H]2[C@@H](O)C[C@@]2(C)[C@H]1CC[C@]2(O)C(=O)CO (single isomer, unassigned) [PREDNISOLONE]",inhibition in vivo at 0.1 mg/kg,Mus musculus [3],39%
same,inhibition in vivo at 1 mg/kg,Mus musculus [4],39%
same,inhibition in vivo at 10 mg/kg,Mus musculus [5],52%
same,inhibition in vivo at 1 mg/kg,Mus musculus [6],75%
same,inhibition in vivo at 10 mg/kg,Mus musculus [7],100%
same,inhibition in vivo at 0.1 mg/kg,Mus musculus [8],53%
CN(C(=O)c1c(O)c2cc(Sc3ccccc3)ccc2n(C)c1=O)c1ccccc1,inhibition in vivo at 32 mg/kg,Mus musculus [1],100%
CN(C(=O)c1c(O)c2cc(Oc3ccccc3)ccc2n(C)c1=O)c1ccccc1,inhibition in vivo at 32 mg/kg,Mus musculus [1],26%
CN(C(=O)c1c(O)c2cc(S(C)(=O)=O)ccc2n(C)c1=O)c1ccccc1,inhibition in vivo at 32 mg/kg,Mus musculus [1],0%
CSc1ccc2c(c1)c(N)c(C(=O)N(C)c1ccccc1)c(=O)n2C,inhibition in vivo at 32 mg/kg,Mus musculus [1],22%
COc1ccc(N(C)C(=O)c2c(O)c3cc(SC)ccc3n(C)c2=O)cc1,inhibition in vivo at 32 mg/kg,Mus musculus [1],100%
CSc1ccc2c(c1)c(Cl)c(C(=O)N(C)c1ccccc1)c(=O)n2C,inhibition in vivo at 32 mg/kg,Mus musculus [1],-1%
CNc1c(C(=O)N(C)c2ccccc2)c(=O)n(C)c2ccc(SC)cc12,inhibition in vivo at 32 mg/kg,Mus musculus [1],83%
CCN(C(=O)c1c(O)c2cc(SC)ccc2n(C)c1=O)c1ccccc1,inhibition in vivo at 32 mg/kg,Mus musculus [1],89%
CSc1ccc2c(c1)c(O)c(C(=O)N(C)c1ccccc1)c(=O)n2C,inhibition in vivo at 0.1 mg/kg,Mus musculus [9],49%
same,inhibition in vivo at 0.1 mg/kg,Mus musculus [3],41%
same,inhibition in vivo at 0.32 mg/kg,Mus musculus [10],69%
same,inhibition in vivo at 1 mg/kg,Mus musculus [11],76%
same,inhibition in vivo at 1 mg/kg,Mus musculus [4],50%
same,inhibition in vivo at 10 mg/kg,Mus musculus [12],93%
same,inhibition in vivo at 10 mg/kg,Mus musculus [5],88%
same,inhibition in vivo at 100 mg/kg,Mus musculus [13],94%
same,inhibition in vivo at 3.2 mg/kg,Mus musculus [14],88%
same,inhibition in vivo at 0.32 mg/kg,Mus musculus [15],100%
same,inhibition in vivo at 1 mg/kg,Mus musculus [16],100%
same,inhibition in vivo at 1 mg/kg,Mus musculus [6],82%
same,inhibition in vivo at 10 mg/kg,Mus musculus [17],100%
same,inhibition in vivo at 100 mg/kg,Mus musculus [2],100%
same,inhibition in vivo at 10 mg/kg,Mus musculus [7],100%
same,inhibition in vivo at 3.2 mg/kg,Mus musculus [18],100%
same,inhibition in vivo at 32 mg/kg,Mus musculus [1],100%
same,inhibition in vivo at 0.1 mg/kg,Mus musculus [19],100%
same,inhibition in vivo at 0.1 mg/kg,Mus musculus [8],66%
CSc1ccc2c(c1)c(O)c(S(=O)(=O)Cc1ccccc1)c(=O)n2C,inhibition in vivo at 100 mg/kg,Mus musculus [2],-49%
CCn1c(=O)c(C(=O)N(C)c2ccccc2)c(O)c2cc(SC)ccc21,inhibition in vivo at 32 mg/kg,Mus musculus [1],83%
CSc1ccc2c(c1)c(O)c(C(=O)N(C)c1ccccn1)c(=O)n2C,inhibition in vivo at 32 mg/kg,Mus musculus [1],65%
CSc1ccc2c(c1)c(O)c(C(=O)c1ccccc1)c(=O)n2C,inhibition in vivo at 100 mg/kg,Mus musculus [2],42%
CN(C(=O)c1c(O)c2ccccc2n(C)c1=O)c1ccccc1 [ROQUINIMEX],inhibition in vivo at 1 mg/kg,Mus musculus [11],24%
same,inhibition in vivo at 10 mg/kg,Mus musculus [12],51%
same,inhibition in vivo at 10 mg/kg,Mus musculus [5],-19%
same,inhibition in vivo at 100 mg/kg,Mus musculus [20],76%
same,inhibition in vivo at 100 mg/kg,Mus musculus [13],37%
same,inhibition in vivo at 3.2 mg/kg,Mus musculus [14],35%
same,inhibition in vivo at 32 mg/kg,Mus musculus [21],36%
same,inhibition,Mus musculus [22],inactive
same,inhibition in vivo at 10 mg/kg,Mus musculus [17],60%
same,inhibition in vivo at 100 mg/kg,Mus musculus [23],100%
same,inhibition in vivo at 100 mg/kg,Mus musculus [2],98%
same,inhibition in vivo at 10 mg/kg,Mus musculus [7],9%
same,inhibition,Mus musculus [24],inactive
same,inhibition in vivo at 32 mg/kg,Mus musculus [25],100%
same,inhibition in vivo at 32 mg/kg,Mus musculus [1],86%
same,inhibition in vivo at 32 mg/kg,Mus musculus [26],52%
CSc1ccc2c(c1)c(O)c(S(=O)(=O)N(C)c1ccccc1)c(=O)n2C,inhibition in vivo at 32 mg/kg,Mus musculus [1],53%
CSc1ccc2c(c1)c(O)c(C(=O)N(C)c1ccc(F)cc1)c(=O)n2C,inhibition in vivo at 32 mg/kg,Mus musculus [1],100%
COc1c(C(=O)N(C)c2ccccc2)c(=O)n(C)c2ccc(SC)cc12,inhibition in vivo at 32 mg/kg,Mus musculus [1],94%
CSc1ccc2c(c1)c(O)c(C(=O)N(C)c1ccc(C)cc1)c(=O)n2C,inhibition in vivo at 32 mg/kg,Mus musculus [1],100%
CSc1ccc2c(c1)c(O)c(C(=O)C1(c3ccccc3)CC1)c(=O)n2C,inhibition in vivo at 100 mg/kg,Mus musculus [2],29%
CSc1ccc2nc(O)c(C(=O)N(C)c3ccccc3)c(O)c2c1,inhibition in vivo at 32 mg/kg,Mus musculus [1],88%
COCn1c(=O)c(C(=O)N(C)c2ccccc2)c(O)c2cc(SC)ccc21,inhibition in vivo at 32 mg/kg,Mus musculus [1],78%
CSc1ccc2c(c1)c(S)c(C(=O)N(C)c1ccccc1)c(=O)n2C,inhibition in vivo at 32 mg/kg,Mus musculus [1],19%
CCSc1ccc2c(c1)c(O)c(C(=O)N(C)c1ccccc1)c(=O)n2C,inhibition in vivo at 32 mg/kg,Mus musculus [1],100%
